Tested on: yeast genes (level of expressed mRNA)
Experiment: DNA chip analysis of expressed mRNA of yeast genes after 2 h culture with a toxic chemical substance
Assay type: cell-based, Saccharomyces cerevisiae S288C
Protocol: Yeast (Saccharomyces cerevtisiae S288C (α SUC2mal mel gap2 CUP1)) were cultured at 25° C. on YPD medium (yeast extract 1%, polypepton 2%, glucose 2%). One of toxic chemical substances was added to the cell at logarithmic growth phase, and the cell was further cultured for two hours. Cell was cultured without any chemical substance in the same condition, and was used as control. Concentrations of the chemical substances were defined to inhibit the growth of the yeast but not lead to death.
After the completion of cultivation, the culture was centrifuged to collect the cells. To the cells, sodium acetate buffer (50 mM sodium acetate, 10 mM EDTA, 1% SDS) was added, and the mixture was shaken at 65° C. for five minutes, followed by returning to room temperature, and obtaining the supernatant, which procedure was repeated two times. To the supernatant, ½ amount of a solution of phenol/chloroform was added, and the mixture was centrifuged to give a supernatant, which was added with an equal amount of chloroform, and the mixture was centrifuged to give a supernatant. To the supernatant, an equal amount of isopropanol containing 0.3 M sodium acetate was added, and the mixture was allowed to stand at room temperature for 30 minutes, after which the mixture was centrifuged to give a sediment of the whole RNAs. Seventy % ethanol was added to the sediment, and the mixture was again centrifuged to give a sediment, which was then dried and dissolved in water. mRNA was isolated from the whole RNAs as followings. In view of the fact that a poly A chain is attached to the 3′ terminus of mRNA, a polynucleotide having a poly T structure which was immobilized on the surface of latex beads was used to trap the mRNA, and then the mRNA was washed and eluted with spine column (Oligotex-dT30<Super>mRNA Purification Kit, Takara). Reverse transcription of the mRNA was conducted with a reverse transcriptase (Super Script II Reverse Transcriptase; catalogue No. 18064-014, GibcoBRL) using fluorescence-labeled nucleotides to give cDNAs that were introduced with Cy3-dUTP or Cy5-dUTP during the reverse transcription.
The labeled cDNAs were dissolved in TE buffer (10 mM Tris-HCl/1 mM EDTA, pH8.0), and the solution was dropped on the DNA chip containing the whole genes of yeast (DNA Chip Research Inc. Japan) so that the cDNAs were hybridized on the DNA chip at 65° C. for over 12 hours. The fluoresces intensity of the DNA chip was read with a scanner, and the ratio relative to the fluorescence intensity resulting from the absence of chemical substance was estimated as the following, which is shown in Tables 1 to 9: [formula]
In the Tables, “Intensity” indicated in the rightmost column is a value of the level of expressed mRNA of each gene in control cells as divided by the average level of the expressions of the whole genes.

C=CC=O [(14), acrolein]
The level of expressed mRNA in the presence of chemical substance/absence: YGR293C (gene YGR293C): 1.0
The level of expressed mRNA in the presence of chemical substance/absence: YHL006C (gene YHL006C): 1.1
The level of expressed mRNA in the presence of chemical substance/absence: YHL021C (gene YHL021C): 1.1
The level of expressed mRNA in the presence of chemical substance/absence: YHL037C (gene YHL037C): 0.9
level of expressed mRNA in the presence of chemical substance/in its absence (gene YHR037W): 1.1
The level of expressed mRNA in the presence of chemical substance/absence: YHR083W (gene YHR083W): 1.6
level of expressed mRNA in the presence of chemical substance/in its absence (gene YHR092C): 1.6
The level of expressed mRNA in the presence of chemical substance/absence: YHR095W (gene YHR095W): 0.9
The level of expressed mRNA in the presence of chemical substance/absence: YHR105W (gene YHR105W): 1.2
The level of expressed mRNA in the presence of chemical substance/absence: YHR134W (gene YHR134W): 1.6
level of expressed mRNA in the presence of chemical substance/in its absence (gene YHR137W): 0.8
The level of expressed mRNA in the presence of chemical substance/absence: YHR180W (gene YHR180W): 1.5
The level of expressed mRNA in the presence of chemical substance/absence: YHR181W (gene YHR181W): 1.6
level of expressed mRNA in the presence of chemical substance/in its absence (gene YHR190W): 1.3
level of expressed mRNA in the presence of chemical substance/in its absence (gene YIL033C): 0.7
The level of expressed mRNA in the presence of chemical substance/absence: YIL108W (gene YIL108W): 1.0
The level of expressed mRNA in the presence of chemical substance/absence: YIL127C (gene YIL127C): 1.3
level of expressed mRNA in the presence of chemical substance/in its absence (gene YIL154C): 0.9
The level of expressed mRNA in the presence of chemical substance/absence: YIL165C (gene YIL165C): 1.3
level of expressed mRNA in the presence of chemical substance/in its absence (gene YIL167W): 1.4
level of expressed mRNA in the presence of chemical substance/in its absence (gene YIR035C): 1.1
The level of expressed mRNA in the presence of chemical substance/absence: YJL017W (gene YJL017W): 1.0
The level of expressed mRNA in the presence of chemical substance/absence: YJL032W (gene YJL032W): 1.6
The level of expressed mRNA in the presence of chemical substance/absence: YJL037W (gene YJL037W): 2.0
The level of expressed mRNA in the presence of chemical substance/absence: YJL049W (gene YJL049W): 1.8
level of expressed mRNA in the presence of chemical substance/in its absence (gene YJL088W): 2.0
The level of expressed mRNA in the presence of chemical substance/absence: YJL097W (gene YJL097W): 1.0
level of expressed mRNA in the presence of chemical substance/in its absence (gene YJL132W): 1.4
level of expressed mRNA in the presence of chemical substance/in its absence (gene YJL196C): 0.8
The level of expressed mRNA in the presence of chemical substance/absence: YJR030C (gene YJR030C): 1.0
The level of expressed mRNA in the presence of chemical substance/absence: YJR044C (gene YJR044C): 1.3
level of expressed mRNA in the presence of chemical substance/in its absence (gene YJR142W): 1.3
level of expressed mRNA in the presence of chemical substance/in its absence (gene YJR148W): 1.3
level of expressed mRNA in the presence of chemical substance/in its absence (gene YJR159W): 2.0
The level of expressed mRNA in the presence of chemical substance/absence: YKL051W (gene YKL051W): 0.7
The level of expressed mRNA in the presence of chemical substance/absence: YKL059C (gene YKL059C): 1.1
level of expressed mRNA in the presence of chemical substance/in its absence (gene YKL067W): 1.2
The level of expressed mRNA in the presence of chemical substance/absence: YKL090W (gene YKL090W): 1.4
The level of expressed mRNA in the presence of chemical substance/absence: YKL094W (gene YKL094W): 1.3
The level of expressed mRNA in the presence of chemical substance/absence: YKL097C (gene YKL097C): 1.0
The level of expressed mRNA in the presence of chemical substance/absence: YKL100C (gene YKL100C): 1.0
level of expressed mRNA in the presence of chemical substance/in its absence (gene YKR039W): 1.2
The level of expressed mRNA in the presence of chemical substance/absence: YKR040C (gene YKR040C): 3.8
The level of expressed mRNA in the presence of chemical substance/absence: YLR097C (gene YLR097C): 1.7
level of expressed mRNA in the presence of chemical substance/in its absence (gene YLR142W): 2.1
level of expressed mRNA in the presence of chemical substance/in its absence (gene YLR180W): 0.6
The level of expressed mRNA in the presence of chemical substance/absence: YLR226W (gene YLR226W): 1.1
level of expressed mRNA in the presence of chemical substance/in its absence (gene YLR273C): 1.3
level of expressed mRNA in the presence of chemical substance/in its absence (gene YLR300W): 0.6
level of expressed mRNA in the presence of chemical substance/in its absence (gene YLR307W): 1.9
The level of expressed mRNA in the presence of chemical substance/absence: YLR338W (gene YLR338W): 0.8
The level of expressed mRNA in the presence of chemical substance/absence: YLR339C (gene YLR339C): 0.5
The level of expressed mRNA in the presence of chemical substance/absence: YLR392C (gene YLR392C): 1.1
The level of expressed mRNA in the presence of chemical substance/absence: YLR415C (gene YLR415C): 0.8
The level of expressed mRNA in the presence of chemical substance/absence: YLR427W (gene YLR427W): 0.8
The level of expressed mRNA in the presence of chemical substance/absence: YML013W (gene YML013W): 1.1
The level of expressed mRNA in the presence of chemical substance/absence: YML029W (gene YML029W): 1.6
The level of expressed mRNA in the presence of chemical substance/absence: YML041C (gene YML041C): 2.2
The level of expressed mRNA in the presence of chemical substance/absence: YML079W (gene YML079W): 1.4
level of expressed mRNA in the presence of chemical substance/in its absence (gene YML110C): 1.4
The level of expressed mRNA in the presence of chemical substance/absence: YML118W (gene YML118W): 1.0
The level of expressed mRNA in the presence of chemical substance/absence: YMR068W (gene YMR068W): 1.1
The level of expressed mRNA in the presence of chemical substance/absence: YMR071C (gene YMR071C): 1.2
level of expressed mRNA in the presence of chemical substance/in its absence (gene YMR105C): 1.0
The level of expressed mRNA in the presence of chemical substance/absence: YMR114C (gene YMR114C): 1.5
The level of expressed mRNA in the presence of chemical substance/absence: YMR115W (gene YMR115W): 1.3
The level of expressed mRNA in the presence of chemical substance/absence: YMR160W (gene YMR160W): 1.1
level of expressed mRNA in the presence of chemical substance/in its absence (gene YMR189W): 1.6
The level of expressed mRNA in the presence of chemical substance/absence: YMR258C (gene YMR258C): 1.0
level of expressed mRNA in the presence of chemical substance/in its absence (gene YMR271C): 1.8
level of expressed mRNA in the presence of chemical substance/in its absence (gene YMR272C): 0.8
level of expressed mRNA in the presence of chemical substance/in its absence (gene YMR296C): 0.7
level of expressed mRNA in the presence of chemical substance/in its absence (gene YNL012W): 1.0
The level of expressed mRNA in the presence of chemical substance/absence: YNL026W (gene YNL026W): 0.8
level of expressed mRNA in the presence of chemical substance/in its absence (gene YNL037C): 1.3
level of expressed mRNA in the presence of chemical substance/in its absence (gene YNL045W): 0.8
The level of expressed mRNA in the presence of chemical substance/absence: YNL058C (gene YNL058C): 0.8
The level of expressed mRNA in the presence of chemical substance/absence: YNL063W (gene YNL063W): 1.1
level of expressed mRNA in the presence of chemical substance/in its absence (gene YNL104C): 0.9
level of expressed mRNA in the presence of chemical substance/in its absence (gene YNL106C): 1.1
level of expressed mRNA in the presence of chemical substance/in its absence (gene YNL130C): 1.0
level of expressed mRNA in the presence of chemical substance/in its absence (gene YNL169C): 0.9
The level of expressed mRNA in the presence of chemical substance/absence: YNL176C (gene YNL176C): 0.9
The level of expressed mRNA in the presence of chemical substance/absence: YNL181W (gene YNL181W): 1.9
The level of expressed mRNA in the presence of chemical substance/absence: YNL191W (gene YNL191W): 1.0
The level of expressed mRNA in the presence of chemical substance/absence: YNL194C (gene YNL194C): 3.0
The level of expressed mRNA in the presence of chemical substance/absence: YNL200C (gene YNL200C): 0.6
The level of expressed mRNA in the presence of chemical substance/absence: YNL212W (gene YNL212W): 1.0
level of expressed mRNA in the presence of chemical substance/in its absence (gene YNL231C): 0.9
The level of expressed mRNA in the presence of chemical substance/absence: YNL253W (gene YNL253W): 1.4
The level of expressed mRNA in the presence of chemical substance/absence: YNL265C (gene YNL265C): 1.9
The level of expressed mRNA in the presence of chemical substance/absence: YNL276C (gene YNL276C): 1.5
level of expressed mRNA in the presence of chemical substance/in its absence (gene YNL322C): 1.2
level of expressed mRNA in the presence of chemical substance/in its absence (gene YNR002C): 1.2
level of expressed mRNA in the presence of chemical substance/in its absence (gene YNR019W): 1.0
level of expressed mRNA in the presence of chemical substance/in its absence (gene YNR033W): 0.9
The level of expressed mRNA in the presence of chemical substance/absence: YNR051C (gene YNR051C): 1.0
level of expressed mRNA in the presence of chemical substance/in its absence (gene YNR059W): 1.0
The level of expressed mRNA in the presence of chemical substance/absence: YOL026C (gene YOL026C): 1.3
The level of expressed mRNA in the presence of chemical substance/absence: YOL030W (gene YOL030W): 0.6
level of expressed mRNA in the presence of chemical substance/in its absence (gene YOL058W): 1.5
level of expressed mRNA in the presence of chemical substance/in its absence (gene YOL126C): 1.2
level of expressed mRNA in the presence of chemical substance/in its absence (gene YOL143C): 0.7
level of expressed mRNA in the presence of chemical substance/in its absence (gene YOL153C): 1.5
level of expressed mRNA in the presence of chemical substance/in its absence (gene YOL157C): 1.2
The level of expressed mRNA in the presence of chemical substance/absence: YOR022C (gene YOR022C): 1.0
The level of expressed mRNA in the presence of chemical substance/absence: YOR087W (gene YOR087W): 0.9
The level of expressed mRNA in the presence of chemical substance/absence: YOR088W (gene YOR088W): 0.4
level of expressed mRNA in the presence of chemical substance/in its absence (gene YOR099W): 0.7
level of expressed mRNA in the presence of chemical substance/in its absence (gene YOR130C): 1.3
level of expressed mRNA in the presence of chemical substance/in its absence (gene YOR136W): 0.9
The level of expressed mRNA in the presence of chemical substance/absence: YOR138C (gene YOR138C): 0.9
The level of expressed mRNA in the presence of chemical substance/absence: YOR155C (gene YOR155C): 1.5
The level of expressed mRNA in the presence of chemical substance/absence: YOR253W (gene YOR253W): 1.3
